Test results taken from ChEMBL document CHEMBL4138122, “Azaphenothiazines - promising phenothiazine derivatives. An insight into nomenclature, synthesis, structure elucidation and biological properties” (Eur J Med Chem, 2017).
Values after ≈ are worked out from the molar mass of the structure shown.

Experiments:
Escherichia coli = assay: Antibacterial activity against Escherichia coli; format: functional; settings: Escherichia coli
Candida albicans [1] = assay: microbe, parasite or virus in culture
[2] = Inhibition of lipoxygenase in rat peritoneal cavity resident cells
Staphylococcus aureus [3] = assay: Antibacterial activity against methicillin-resistant Staphylococcus aureus; format: functional
Salmonella typhimurium = assay: Antibacterial activity against Salmonella typhimurium; format: functional, Salmonella enterica subsp. enterica serovar Typhimurium; settings: Salmonella enterica
Lipoxygenase = Lipoxygenase (Glycine max, UniProt Q39829); assay: Inhibition of soybean lipoxygenase using linoleic acid as substrate preincubated for 5 mins followed by substrate addition measuredf after 7 mins by solution A/B solution based assay
Mus musculus [4] = assay: Neuropharmacological activity in iv dosed Charles River Swiss mouse assessed as minimum dose at which reactive signs were observed in half of mouse tested; format: functional
MCF7 [5] = assay: Cytotoxicity against human MCF7 cells incubated for 72 hrs by WST1 dye based assay; format: functional, cell-based; settings: MCF7, 72 h
C32 = assay: Cytotoxicity against human C32 cells incubated for 72 hrs by WST1 dye based assay; format: functional, cell-based; settings: C32, 72 h
HFF-1 = assay: Cytotoxicity against human HFF1 cells incubated for 72 hrs by WST1 dye based assay; format: cell-based; settings: HFF-1, 72 h
[6] = Inhibition of soybean 15-lipoxygenase; set-up: species or system Glycine max
Enterococcus faecalis = assay: Antibacterial activity against Enterococcus faecalis; format: functional
Staphylococcus aureus [7] = assay: Antimicrobial activity against Staphylococcus aureus assessed as reduction in bacterial growth at 100 ppm relative to control; format: functional
Candida albicans [8] = assay: Antimicrobial activity against Candida albicans assessed as reduction in […] growth at 100 ppm relative to control; format: functional
[9] = system: Trichophyton mentagrophytes; assay: Antimicrobial activity against Trichophyton mentagrophytes assessed as reduction in microbial growth at 100 ppm relative to control; format: functional
Aspergillus terreus = assay: Antimicrobial activity against Aspergillus terreus assessed as reduction in microbial growth at 100 ppm relative to control; format: functional
Aureobasidium pullulans = assay: Antimicrobial activity against Pullularia pullulans assessed as reduction in microbial growth at 100 ppm relative to control; format: functional
[10] = Inhibition of LTB4 formation in rat polymorphonuclear leukocytes preincubated for 2 mins followed by A-23187 addition after 4 mins; format: functional, cell-based
Rattus norvegicus [11] = assay: Anti-asthmatic activity in rat assessed as inhibition of egg albumin-induced duration of symptoms of dyspnoea at 3 mg/kg, po administered 90 mins prior to dyspnoea induction; format: functional
Rattus norvegicus [12] = assay: Anti-asthmatic activity in rat assessed as inhibition of egg albumin-induced duration of symptoms of dyspnoea at 5 mg/kg, po administered 90 mins prior to dyspnoea induction; format: functional
PBMC [13] = assay: Inhibition of PHA-induced cell proliferation of human PBMC at 50 ug/ml incubated for 4 days by MTT method; format: functional; settings: 96 h
PBMC [14] = assay: Inhibition of LPS-induced TNFalpha profduction in human PBMC at 5 ug/ml; format: functional
PBMC [15] = assay: Cytotoxicity in human PBMCs assessed as reduction in cel viability at 50 ug/ml; format: cell-based
HOP-92 = assay: Cytotoxicity against human HOP92 cells assessed as cell growth inhibition after 48 hrs by SRB assay; format: functional, cell-based; settings: HOP-92, 48 h
MCF7 [16] = assay: Cytotoxicity against human MCF7 cells assessed as cell growth inhibition after 48 hrs by SRB assay; format: functional, cell-based; settings: MCF7, 48 h
Rattus norvegicus [17] = organism: Rattus norvegicus; assay: Antioxidant activity in albino rat assessed as inhibition of catalase induced H2O2 production; format: functional
Bacillus cereus = assay: Antibacterial activity against Bacillus cereus; format: functional, organism-based
Aspergillus niger = assay: Antifungal activity against Aspergillus niger; format: functional
Mus musculus [18] = assay: Analgesic activity in mouse assessed as reduction in phenylquinone-induced number of writhes at 20 mg/kg, ip; format: functional; set-up: scale not given: the % may be the effect or the level left
[19] = molecular target: Cholinesterase (Equus caballus) (UniProt P81908); assay: Inhibition of horse serum BChE at 10 uM
Chain of Cholinesterase (Equus caballus) (P81908 whole entry): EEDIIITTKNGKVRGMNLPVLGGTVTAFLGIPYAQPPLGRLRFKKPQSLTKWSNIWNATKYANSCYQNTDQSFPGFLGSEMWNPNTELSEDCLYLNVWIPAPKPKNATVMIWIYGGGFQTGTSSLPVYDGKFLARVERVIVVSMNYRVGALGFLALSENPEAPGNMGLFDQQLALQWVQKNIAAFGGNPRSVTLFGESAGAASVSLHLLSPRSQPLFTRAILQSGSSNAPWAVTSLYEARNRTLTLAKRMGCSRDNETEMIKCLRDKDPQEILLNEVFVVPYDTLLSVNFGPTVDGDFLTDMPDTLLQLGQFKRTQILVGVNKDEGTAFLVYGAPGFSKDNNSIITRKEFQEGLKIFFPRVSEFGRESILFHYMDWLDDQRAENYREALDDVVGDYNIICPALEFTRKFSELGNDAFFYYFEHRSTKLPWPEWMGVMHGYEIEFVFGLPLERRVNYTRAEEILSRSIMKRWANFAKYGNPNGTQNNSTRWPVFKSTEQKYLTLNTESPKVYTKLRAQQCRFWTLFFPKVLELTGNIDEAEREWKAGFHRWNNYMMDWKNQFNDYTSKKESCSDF

Bacillus subtilis = assay: Antibacterial activity against Bacillus subtilis; format: functional; settings: Bacillus subtilis
Staphylococcus aureus [20] = assay: Antibacterial activity against Staphylococcus aureus; format: functional; settings: Staphylococcus aureus; read-out: MIC
Cholinesterase = Cholinesterase (Equus caballus, UniProt P81908); assay: Inhibition of horse serum BChE
Chain of Cholinesterase (P81908 whole entry): as above

UO-31 = assay: Growth inhibition of human UO31 cells at 10 uM; format: functional; settings: read-out: GI
[21] = Antioxidant activity assessed as DPPH radical scavenging activity; format: functional; settings: dose or concentration not given here
Mus musculus [22] = organism: Mus musculus; assay: Antioxidant activity in Swiss albino mouse assessed as GSH level per mg tissue; format: functional
Mus musculus [23] = organism: Mus musculus; assay: Antioxidant activity in Swiss albino mouse assessed as LPO level per mg tissue; format: functional

SMILES: COc1ccc2c(n1)Sc1c3c(c4ccccc4c1=N2)=Nc1ccc(OC)nc1S3
- MIC (Escherichia coli): 144 µg/mL (≈ 336 µM)
- MIC (Candida albicans [1]): 72.4 µg/mL (≈ 168 µM)

SMILES: Cn1c(=O)[nH]c2c(c1=O)Nc1ccccc1S2
- IC50 [2]: 1900 nM

SMILES: COc1ccc2c(c1)Sc1c(F)cc3c(=O)c(C(=O)O)cn(C4CC4)c3c1N2
- MIC (Staphylococcus aureus [3]): 25 µg/mL (≈ 62.7 µM)
- MIC (Salmonella typhimurium): 6 µg/mL (≈ 15.1 µM)

SMILES: Cc1nc(N2CCN(C)CC2)nc2c1Nc1ccccc1S2
- IC50 (Lipoxygenase): 21.2 µM

SMILES: CSc1ccc2c(c1)N(C(=O)SCCN(C(C)C)C(C)C)c1ncccc1S2
- MED50 (Mus musculus [4]): 0.058 to 1.8 mg/kg

SMILES: c1cnc2c(c1)Nc1ncccc1S2
- IC50 (MCF7 [5]): 4.8 µg/mL (≈ 23.9 µM)
- IC50 (C32): 7.5 µg/mL (≈ 37.3 µM)
- IC50 (HFF-1): ≥ 50 µg/mL

SMILES: c1ccc2c(c1)Nc1nnc(N3CCCCC3)cc1S2
- IC50 [6]: > 287 µM

SMILES: C[n+]1cc2c(c3ccccc31)Nc1ccccc1S2.[Cl-]
- MIC (Escherichia coli): 7 µg/mL
- MIC (Enterococcus faecalis): 6 µg/mL

SMILES: C[n+]1cc2c(c3ccccc31)Nc1ccc(Cl)cc1S2.[Cl-]
- MIC (Escherichia coli): 6 µg/mL
- MIC (Enterococcus faecalis): 4 µg/mL

SMILES: Clc1nc2c(nc1Cl)N(CCC1CCCN1)c1ccccc1S2 (stereo not drawn)
- inhibition at 100 ppm (Staphylococcus aureus [7]): 100%
- inhibition at 100 ppm (Candida albicans [8]): 100%
- inhibition at 100 ppm [9]: 100%
- inhibition at 100 ppm (Aspergillus terreus): 100%
- inhibition at 100 ppm (Aureobasidium pullulans): 100%

SMILES: CC(C)N(CCSC(=O)N1c2cc(F)ccc2Sc2cccnc21)C(C)C
- MED50 (Mus musculus [4]): 0.058 to 1.8 mg/kg

SMILES: Oc1ccc2c(c1)Sc1nccnc1N2
- IC50 [10]: 0.05 to 1 µg/mL (≈ 0.23 to 4.6 µM)
- inhibition in vivo at 3 mg/kg (Rattus norvegicus [11]): 43%
- inhibition in vivo at 5 mg/kg (Rattus norvegicus [12]): 47%

SMILES: CC(CN(C)C)CN1c2cnccc2Sc2cccnc21 (stereo not drawn)
- inhibition at 50 µg/mL (PBMC [13]): 60%
- inhibition at 5 µg/mL (PBMC [14]): > 85%
- Activity (PBMC [15]): <= 22%

SMILES: Clc1nc2c(nc1Cl)N(CCCN1CCCC1)c1ccccc1S2
- inhibition at 100 ppm (Staphylococcus aureus [7]): 100%
- inhibition at 100 ppm (Candida albicans [8]): 100%
- inhibition at 100 ppm [9]: 100%
- inhibition at 100 ppm (Aspergillus terreus): 100%
- inhibition at 100 ppm (Aureobasidium pullulans): 100%

SMILES: CN(C)CCCN1c2nc3ccccc3cc2Sc2cc3ccccc3nc21
- IC50 (HOP-92): ≤ 1000 nM
- IC50 (MCF7 [16]): ≤ 1000 nM

SMILES: CCN(CC)CCN1c2cccnc2Sc2cccnc21
- IC50 (C32): 6.6 µg/mL (≈ 22 µM)
- IC50 (HFF-1): ≥ 50 µg/mL

SMILES: O=C(O)c1cn(C2CC2)c2c3c(c(F)cc2c1=O)Sc1cc(Cl)ccc1N3
- MIC (Staphylococcus aureus [3]): ≥ 100 µg/mL

SMILES: O=C1O[C@H]([C@@H](O)CO)C(O)=C1O [ASCORBIC ACID]
- inhibition (INH) (Rattus norvegicus [17]): 71.9%

SMILES: Oc1ncnc2c1N=c1c(c3c(c4ccccc14)=Nc1ccccc1S3)O2
- MIC (Escherichia coli): 87.1 to 97.1 µg/mL (≈ 235 to 262 µM)
- MIC (Bacillus cereus): 66.1 µg/mL (≈ 178 µM)
- MIC (Aspergillus niger): 79.4 µg/mL (≈ 214 µM)

SMILES: CN1CCN(CC#CCN2c3cccnc3Sc3cccnc32)CC1
- IC50 (MCF7 [5]): 7.5 µg/mL (≈ 21.3 µM)

SMILES: Cc1ccc2c(c1)Sc1c(F)cc3c(=O)c(C(=O)O)cn(C4CC4)c3c1N2
- MIC (Escherichia coli): 1.5 µg/mL (≈ 3.92 µM)
- MIC (Staphylococcus aureus [3]): 1.5 µg/mL (≈ 3.92 µM)
- MIC (Bacillus cereus): 1.5 µg/mL (≈ 3.92 µM)
- MIC (Salmonella typhimurium): 1.5 µg/mL (≈ 3.92 µM)

SMILES: CN1CCN(c2ncc3c(n2)Sc2ccccc2N3)CC1
- IC50 (Lipoxygenase): 87.7 µM

SMILES: CN1CCN(Cc2nnc3c4c(cnn23)Sc2ccccc2N4)CC1
- Activity (Mus musculus [18]): 54 - 65%

SMILES: O=C(NCCCl)NCCCN1c2ccc(Cl)cc2Sc2cc3ccccc3nc21
- inhibition [19]: 80%

SMILES: CCSc1ncc2c(n1)N=c1c(c3c(c4ccccc14)=Nc1nc(SCC)nc(O)c1S3)S2
- MIC (Bacillus subtilis): 63.3 µg/mL (≈ 124 µM)
- MIC (Staphylococcus aureus [20]): 39.8 µg/mL (≈ 78.2 µM)
- IC50 (Bacillus cereus): 50.5 µg/mL (≈ 99.3 µM)
- MIC (Aspergillus niger): 60.3 µg/mL (≈ 119 µM)

SMILES: CCN1CCN(c2nc(C)c3c(n2)Sc2ccccc2N3)CC1
- IC50 (Lipoxygenase): 40.7 µM

SMILES: CN1CCCCC1CCN1c2nc3ccccc3cc2Sc2cc3ccccc3nc21 (stereo not drawn)
- inhibition [19]: 99.8%
- IC50 (Cholinesterase): 11.8 nM

SMILES: c1ccc(CN2c3nc4ccccc4cc3Sc3cc4ccccc4nc32)cc1
- inhibition of growth at 10 µM (UO-31): 57 to 73%

SMILES: COc1cccc2c1Nc1c(c3nc4ccccc4c(=O)n3c3c(OC)cccc13)S2
- inhibition [21]: 45.6 to 47.3%
- Activity (Mus musculus [22]): 6.8 nM
- Activity (Mus musculus [23]): 4.5 to 4.6 nM

SMILES: CCN(CC)CCN1c2nc3ccccc3cc2Sc2cc3ccccc3nc21
- IC50 (HOP-92): ≤ 1000 nM
- IC50 (MCF7 [16]): ≤ 1000 nM

SMILES: CN(C)CCCN1c2ccccc2Sc2nc(Cl)c(Cl)nc21
- inhibition at 100 ppm (Staphylococcus aureus [7]): 100%
- inhibition at 100 ppm (Candida albicans [8]): 100%
- inhibition at 100 ppm [9]: 100%
- inhibition at 100 ppm (Aspergillus terreus): 100%
- inhibition at 100 ppm (Aureobasidium pullulans): 100%

SMILES: CN(C)CCSc1nnc2c3c(cnn12)Sc1ccccc1N3
- Activity (Mus musculus [18]): 54 - 65%
